Results as given in ChEMBL document CHEMBL3885861, “Open TG-GATES”.

Species on record: Rattus norvegicus
Experiment: Open TG-GATES - Regimen: Daily Repeat
Assay type: toxicity, organism-based, Sprague-Dawley
Parameters: regimen Daily Repeat, gender Male, age 6 weeks
Settings: in vivo, po, 100 mg/kg, route gavage, dose level Middle; for APTT / Bas / Eos / Fbg / Hb / Ht / Lym / MCH / MCHC / MCV / Mono / Neu / PT / Plat / RBC / Ret / WBC: tissue Blood; for KIDNEY_L / KIDNEY_R / KIDNEY_TOTAL: tissue Kidney; for LIVER: tissue Liver; for A/G / ALP / ALT / AST / BUN / CRE / Ca / Cl / DBIL / GLC / IP / K / LDH / Na / PL / RALB / TBIL / TC / TG / TP / gamma-GTP: tissue Plasma

Work on ClC(Cl)(Cl)Cl [CARBON TETRACHLORIDE] yielded a TERMINAL_BW (72 h, time 3 day) of 216.4 g, an APTT (72 h, time 3 day) of 20.1 s and a Bas (72 h, time 3 day) of 0%. For the same compound, the Eos (72 h, time 3 day) was 1%, the Fbg (72 h, time 3 day) was 220 mg/dL and the Hb (72 h, time 3 day) was 13.9 g/dL. For the same compound, the Ht (72 h, time 3 day) was 40.9%, the Lym (72 h, time 3 day) was 75% and the MCH (72 h, time 3 day) was 21.3 pg. It also gave an MCHC (72 h, time 3 day) of 34%, an MCV (72 h, time 3 day) of 62.6 fL and a Mono (72 h, time 3 day) of 3.4%. It also gave a Neu (72 h, time 3 day) of 19.6%, a PT (72 h, time 3 day) of 12.6 s and a Plat (72 h, time 3 day) of 123.3 x10_4/uL. It also gave an RBC (72 h, time 3 day) of 653.4 x10_4/ul, a Ret (72 h, time 3 day) of 5.6% and a WBC (72 h, time 3 day) of 95 x10_2/uL. It also gave a KIDNEY_L (72 h, time 3 day) of 0.9 g, a KIDNEY_R (72 h, time 3 day) of 0.9 g and a KIDNEY_TOTAL (72 h, time 3 day) of 1.8 g. It also gave an LIVER (72 h, time 3 day) of 10.9 g, an A/G (72 h, time 3 day) of 1.5 and an ALP (72 h, time 3 day) of 1153 IU/L. It also gave an ALT (72 h, time 3 day) of 68.6 IU/L, an AST (72 h, time 3 day) of 164.4 IU/L and a BUN (72 h, time 3 day) of 13 mg/dL. The CRE (72 h, time 3 day) was 0.4 mg/dL, the Ca (72 h, time 3 day) was 10.9 mg/dL and the Cl (72 h, time 3 day) was 103.4 meq/L. It also gave a DBIL (72 h, time 3 day) of 0.066 mg/dL, a GLC (72 h, time 3 day) of 184.4 mg/dL and an IP (72 h, time 3 day) of 7.3 mg/dL. It also gave a K (72 h, time 3 day) of 4 meq/L, an LDH (72 h, time 3 day) of 279.4 IU/L and a Na (72 h, time 3 day) of 140 meq/L. For the same compound, the PL (72 h, time 3 day) was 132.2 mg/dL, the RALB (72 h, time 3 day) was 3.2 g/dL and the TBIL (72 h, time 3 day) was 0.1 mg/dL. For the same compound, the TC (72 h, time 3 day) was 61.6 mg/dL, the TG (72 h, time 3 day) was 30 mg/dL and the TP (72 h, time 3 day) was 5.4 g/dL. For the same compound, the gamma-GTP (72 h, time 3 day) was 1.4 IU/L, the TERMINAL_BW ([…], time 7 day) was 247.4 g and the TERMINAL_BW ([…], time 14 day) was 301.8 g. It also gave a TERMINAL_BW ([…], time 28 day) of 377.7 g, an APTT ([…], time 7 day) of 19.9 s and a Bas ([…], time 7 day) of 0%. It also gave an Eos ([…], time 7 day) of 1%, a Fbg ([…], time 7 day) of 229.6 mg/dL and a Hb ([…], time 7 day) of 13.9 g/dL. For the same compound, the Ht ([…], time 7 day) was 40.5%, the Lym ([…], time 7 day) was 83.4% and the MCH ([…], time 7 day) was 21.7 pg. For the same compound, the MCHC ([…], time 7 day) was 34.4%, the MCV ([…], time 7 day) was 63 fL and the Mono ([…], time 7 day) was 3%. It also gave a Neu ([…], time 7 day) of 12.8%, a PT ([…], time 7 day) of 12.1 s and a Plat ([…], time 7 day) of 112.3 x10_4/uL. For the same compound, the RBC ([…], time 7 day) was 642.2 x10_4/ul, the Ret ([…], time 7 day) was 5.8% and the WBC ([…], time 7 day) was 127.1 x10_2/uL. It also gave an APTT ([…], time 14 day) of 22.1 s, a Bas ([…], time 14 day) of 0% and an Eos ([…], time 14 day) of 0.8%. It also gave a Fbg ([…], time 14 day) of 217.4 mg/dL, a Hb ([…], time 14 day) of 14 g/dL and a Ht ([…], time 14 day) of 41.6%. It also gave a Lym ([…], time 14 day) of 80.2%, an MCH ([…], time 14 day) of 20.1 pg and an MCHC ([…], time 14 day) of 33.6%. For the same compound, the MCV ([…], time 14 day) was 59.6 fL, the Mono ([…], time 14 day) was 3.2% and the Neu ([…], time 14 day) was 16%. For the same compound, the PT ([…], time 14 day) was 12.2 s, the Plat ([…], time 14 day) was 113 x10_4/uL and the RBC ([…], time 14 day) was 699 x10_4/ul. The Ret ([…], time 14 day) was 4%, the WBC ([…], time 14 day) was 110.8 x10_2/uL and the APTT ([…], time 28 day) was 20.8 s. The Bas ([…], time 28 day) was 0%, the Eos ([…], time 28 day) was 0.6% and the Fbg ([…], time 28 day) was 209.4 mg/dL. For the same compound, the Hb ([…], time 28 day) was 14.7 g/dL, the Ht ([…], time 28 day) was 42.8% and the Lym ([…], time 28 day) was 78.4%. It also gave an MCH ([…], time 28 day) of 18.3 pg, an MCHC ([…], time 28 day) of 34.3% and an MCV ([…], time 28 day) of 53.4 fL. For the same compound, the Mono ([…], time 28 day) was 3.8%, the Neu ([…], time 28 day) was 16.8% and the PT ([…], time 28 day) was 12.5 s. For the same compound, the Plat ([…], time 28 day) was 111.2 x10_4/uL, the RBC ([…], time 28 day) was 801.8 x10_4/ul and the Ret ([…], time 28 day) was 3%. The WBC ([…], time 28 day) was 148.3 x10_2/uL, the KIDNEY_L ([…], time 7 day) was 1.1 g and the KIDNEY_R ([…], time 7 day) was 1.1 g. The KIDNEY_TOTAL ([…], time 7 day) was 2.2 g, the KIDNEY_L ([…], time 14 day) was 1.1 g and the KIDNEY_R ([…], time 14 day) was 1.2 g. The KIDNEY_TOTAL ([…], time 14 day) was 2.3 g, the KIDNEY_L ([…], time 28 day) was 1.3 g and the KIDNEY_R ([…], time 28 day) was 1.3 g. The KIDNEY_TOTAL ([…], time 28 day) was 2.6 g, the LIVER ([…], time 7 day) was 13.2 g and the LIVER ([…], time 14 day) was 15.1 g. It also gave an LIVER ([…], time 28 day) of 18.2 g, an A/G ([…], time 7 day) of 1.4 and an ALP ([…], time 7 day) of 942.6 IU/L. The ALT ([…], time 7 day) was 53.4 IU/L, the AST ([…], time 7 day) was 113.4 IU/L and the BUN ([…], time 7 day) was 15.4 mg/dL. It also gave a CRE ([…], time 7 day) of 0.4 mg/dL, a Ca ([…], time 7 day) of 10.6 mg/dL and a Cl ([…], time 7 day) of 104.4 meq/L. It also gave a DBIL ([…], time 7 day) of 0.074 mg/dL, a GLC ([…], time 7 day) of 193.8 mg/dL and an IP ([…], time 7 day) of 7.6 mg/dL. The K ([…], time 7 day) was 4 meq/L, the LDH ([…], time 7 day) was 231.2 IU/L and the Na ([…], time 7 day) was 141 meq/L. For the same compound, the PL ([…], time 7 day) was 142.8 mg/dL, the RALB ([…], time 7 day) was 3.2 g/dL and the TBIL ([…], time 7 day) was 0.1 mg/dL. For the same compound, the TC ([…], time 7 day) was 63.4 mg/dL, the TG ([…], time 7 day) was 62.6 mg/dL and the TP ([…], time 7 day) was 5.5 g/dL. For the same compound, the gamma-GTP ([…], time 7 day) was 1.4 IU/L, the A/G ([…], time 14 day) was 1.6 and the ALP ([…], time 14 day) was 1040.6 IU/L. For the same compound, the ALT ([…], time 14 day) was 106 IU/L, the AST ([…], time 14 day) was 165.4 IU/L and the BUN ([…], time 14 day) was 15.2 mg/dL. It also gave a CRE ([…], time 14 day) of 0.4 mg/dL, a Ca ([…], time 14 day) of 10.7 mg/dL and a Cl ([…], time 14 day) of 104 meq/L. For the same compound, the DBIL ([…], time 14 day) was 0.06 mg/dL, the GLC ([…], time 14 day) was 184.2 mg/dL and the IP ([…], time 14 day) was 7.6 mg/dL. It also gave a K ([…], time 14 day) of 3.8 meq/L, an LDH ([…], time 14 day) of 281.4 IU/L and a Na ([…], time 14 day) of 142 meq/L. It also gave a PL ([…], time 14 day) of 131.2 mg/dL, an RALB ([…], time 14 day) of 3.5 g/dL and a TBIL ([…], time 14 day) of 0.1 mg/dL. The TC ([…], time 14 day) was 64.4 mg/dL, the TG ([…], time 14 day) was 38.8 mg/dL and the TP ([…], time 14 day) was 5.7 g/dL. For the same compound, the gamma-GTP ([…], time 14 day) was 0.8 IU/L, the A/G ([…], time 28 day) was 1.4 and the ALP ([…], time 28 day) was 760.2 IU/L. The ALT ([…], time 28 day) was 103.2 IU/L, the AST ([…], time 28 day) was 131 IU/L and the BUN ([…], time 28 day) was 16 mg/dL. For the same compound, the CRE ([…], time 28 day) was 0.5 mg/dL, the Ca ([…], time 28 day) was 10.3 mg/dL and the Cl ([…], time 28 day) was 102.6 meq/L. The DBIL ([…], time 28 day) was 0.072 mg/dL, the GLC ([…], time 28 day) was 203.6 mg/dL and the IP ([…], time 28 day) was 6.8 mg/dL. For the same compound, the K ([…], time 28 day) was 3.8 meq/L, the LDH ([…], time 28 day) was 390 IU/L and the Na ([…], time 28 day) was 140.8 meq/L. It also gave a PL ([…], time 28 day) of 122.8 mg/dL, an RALB ([…], time 28 day) of 3.4 g/dL and a TBIL ([…], time 28 day) of 0.1 mg/dL. The TC ([…], time 28 day) was 57 mg/dL, the TG ([…], time 28 day) was 32.2 mg/dL and the TP ([…], time 28 day) was 5.9 g/dL. It also gave a gamma-GTP ([…], time 28 day) of 1.2 IU/L.
